In one experiment the test system is pERK. The experiment in a line: Cell Based Phospho-ERK Assay. The note with it: 6 h, 6 hours incubation with test compound. As to the method:
Biological Methods—Cell Based Phosho-ERK Assay
Compounds were assessed using a cell-based assay which was performed according to the following protocol.
Plate out 16,000 cells/well in 99 μL medium in a 96-well plate.
• 1. Add 1 μL inhibitor to the cells (total […] solution). • 2. Incubate the cells with test compound for 6 hours at 37° C. • 3. Aspirate off the solution from all of the wells. • 4. Fixate the cells with 100 μL 4% formaldehyde/0.25% Triton X-100 PBS per well. • 5. Incubate the plate for 1 hour at 4° C. • 6. Aspirate off the fixing solution and add 300 μL TBS per well. • 7. Leave the plate overnight at 4° C. Day 2: • 1. Wash the plate 2× with 200 μL PBS per well. • 2. Block with 100 μL 5% dried milk in TBS. • 3. Incubate the plate for 20 minutes at 37° C. • 4. Wash the plate 2× with 0.1% tween/H2O. • 5. Add 50 μL of 3 μg/mL primary antibody pERK (Sigma M8159), diluted in 5% milk powder/TBS, to each well. • 6. Incubate the plate for 2 hours at 37° C. • 7. Wash the plate 3× with 0.1% tween/H2O. • 8. Add 50 μL of 0.45 μg/mL secondary Europium-labelled anti-mouse antibody (Perkin Elmer) to each well. • 9. Incubate the plate for 1 hour at 37° C. • 10. Wash the plate 3× with 0.1% tween/H2O. • 11. Add 100 μL enhancement solution (Perkin Elmer) to each well. • 12. Leave the plate for approximately 10 minutes at room temperature before gently shaking the plate. • 13. Read Europium Time Resolved Fluorescence in Victor2. • 14. Wash the plate 2× with 0.1% tween/H2O. • 15. Measure the protein concentration with BCA (Sigma) by adding 200 μL of solution per well. • 16. Incubate the plate for 30 minutes at 37° C. • 17. Read absorbance levels at 570 nm in a plate reader.
Note that Europium counts are normalised for protein levels by dividing counts by absorbance.
(§1) Values for the blank (no cells) are subtracted from all values. The DMSO controls are set as 100% activity and assay points (the response) are calculated as a percentage of the DMSO control. Data are plotted using Graphpad Prism software and a non-linear regression line is calculated using a variable slope sigmoidal dose-response equation (Y=Bottom+(Top−Bottom)/(1+10^((LogEC50−X)*HillSlope)) where X is the logarithm of concentration. Y is the response). The IC50 generated by this procedure is the concentration of the drug that produces a percentage control fluorescence value midway between the saturation, and zero-effect plateaus. Three independent assays are usually performed and the mean IC50 is reported.

Another experiment concerns WM266.4 melanoma cells. Description: SRB Cell Proliferation Assay (SRB GI50). The following applies: Homo sapiens, WM 266-4, 144 h, 6 days growth. It is filed as cell-based. As to the method: Biological Methods —SRB Cell Proliferation Assay (SRB GI50)
Cultures of WM266.4 melanoma cells are routinely cultured in DMEM/10% foetal bovine serum, at 37° C., in 5% CO2 water saturated atmosphere. Cultures are maintained in exponential growth phase by sub-culturing before having become confluent (3-5 day intervals). Single cell suspensions are prepared by harvesting an 80 cm^2 tissue culture flask with 5 mL commercial trypsin EDTA. After 5 minutes, the detached cells are mixed with 5 mL fully complemented culture medium and centrifugally pelleted (1000 rpm for 7 minutes). After aspirating the supernatant, the cell pellet is re-suspended in 10 mL fresh medium and the cells fully disaggregated by drawing the whole volume up/down 5 times through a 19-gauge needle. The concentration of the cells is determined using a haemocytometer (1/10 dilution). A suitable volume to give at least a 2-fold excess for the number of tests being conducted, typically 100-200 mL, is prepared by diluting the cell suspension to 10,000/mL, and 100 μL/well dispensed into 96 well plates using a programmable 8-channel peristaltic pump, giving 1000 cells/well, leaving column 12 blank. The plates are returned to the incubator for 24 hours to allow the cells to re-attach.
The compounds being tested are prepared at 20 mM in dimethylsulphoxide. Aliquots (200 μL) are diluted into 20 mL culture medium giving 200 μM, and 10 serial dilutions of 3× performed by transferring 5 mL to 10 mL. Aliquots (100 μL) of each dilution are added to the wells, using an 8-channel pipettor, thus performing a final further 2× dilution, and giving doses ranging from 100 μM to 0.005 μM. Column 11 receives plain culture medium only. Each compound is tested in quadruplicate, each replicate being the average of four wells, and two plates per compound.
After a further 6 days growth, the plates are emptied, and the cells are fixed in 10% trichloroacteic acid for 10 minutes on ice. After thorough rinsing in running tap water, the plates are dried, and stained by adding 50 μL of a solution of 0.1% sulphorhodamine-B in 1% acetic acid, for 10 minutes at room temperature. The stain is poured out and the plates thoroughly rinsed under a stream of 1% acetic acid, thus removing unbound stain, and dried. The bound stain is taken into solution by addition of 150 μL Tris buffer pH 8, followed by 10 minutes on a plate-shaker (approximately 500 rpm). The absorbance at 540 nm in each well (being proportional to the number of cells present) is determined using a plate reader.
After averaging the results in rows A-D and E-H, the blank value (row 12) is subtracted, and results expressed as percentage of the untreated value (row 11). […] The GI50 generated by this procedure is the concentration of the drug that produces a percentage control A540 midway between the saturation, and zero-effect plateaus.

A further experiment addresses T1, B-RAF (Homo sapiens, UniProt P15056, V600E).
T1 construct: made in house
The experiment in a line: DELFIA Kinase Assay. The class given is biochemical. The note with it: 100 μM ATP, GST-MEK substrate. On the procedure:
Biological Methods—DELFIA Kinase Assay
Compounds were assessed by a kinase assay performed according to the following protocol.
DKB1 (DKB with B-RAF and MEK Protein):
Combine 4950 μL of DKB and 50 μL of 2.5 mg/ml GST-MEK stock (to give […] of MEK per 40 μL). Then add 22.5 μL of B-RAF to give ˜0.2 μL of B-RAF per 40 μL.
100 mM stock, dilute to 500 μM to give 100 μM final concentration in assay.
• 1. Preblock wells with 5% milk in TBS for 1 hour. • 2. Wash wells with 3× with 200 μL TBS. • 3. Plate out 40 μL of DKB1 for all inhibitors (test compounds), DMSO control, and optionally other control compounds. • 4. Plate out 40 μL of DKB2 for BO and EV wells. • 5. Add inhibitors (test compounds) at 0.5 μL per well according to desired plate layout. • 6. Add 0.5 μL DMSO to vehicle control wells. • 7. Add 2 μL of B-RAF to BO and EV wells. • 8. Pre-incubate with inhibitors (test compounds) for 10 minutes at room temperature with shaking. • 9. Add 10 μL of 500 μM ATP stock, in DKB, to give 100 μM assay concentration. • 10. Seal plates with TopSeal and incubate at room temperature with shaking for 45 minutes. • 11. Wash plates 3× with 200 μL 0.1% Tween20/Water to terminate reaction. • 12. Add 50 μL per well of antibody mix and incubate for 1 hour at room temperature with shaking. • 13. Wash plates 3× with 200 μL 0.1% Tween20/Water. • 14. Add 100 μL DELFIA enhancement solution per well, cover in foil, and incubate at room temperature for 30 minutes with shaking. • 15. Read on Victor using Europium protocol.
as §1, with “(Empty Vector)” for “(no cells)”

Several values for one entry are separate records, joined by “and”; a condition that tells them apart may be missing. Identical values can stand only once. A value given as a limit tells only on which side of the number the result lay.

T1 sequence (P15056 whole entry V600E): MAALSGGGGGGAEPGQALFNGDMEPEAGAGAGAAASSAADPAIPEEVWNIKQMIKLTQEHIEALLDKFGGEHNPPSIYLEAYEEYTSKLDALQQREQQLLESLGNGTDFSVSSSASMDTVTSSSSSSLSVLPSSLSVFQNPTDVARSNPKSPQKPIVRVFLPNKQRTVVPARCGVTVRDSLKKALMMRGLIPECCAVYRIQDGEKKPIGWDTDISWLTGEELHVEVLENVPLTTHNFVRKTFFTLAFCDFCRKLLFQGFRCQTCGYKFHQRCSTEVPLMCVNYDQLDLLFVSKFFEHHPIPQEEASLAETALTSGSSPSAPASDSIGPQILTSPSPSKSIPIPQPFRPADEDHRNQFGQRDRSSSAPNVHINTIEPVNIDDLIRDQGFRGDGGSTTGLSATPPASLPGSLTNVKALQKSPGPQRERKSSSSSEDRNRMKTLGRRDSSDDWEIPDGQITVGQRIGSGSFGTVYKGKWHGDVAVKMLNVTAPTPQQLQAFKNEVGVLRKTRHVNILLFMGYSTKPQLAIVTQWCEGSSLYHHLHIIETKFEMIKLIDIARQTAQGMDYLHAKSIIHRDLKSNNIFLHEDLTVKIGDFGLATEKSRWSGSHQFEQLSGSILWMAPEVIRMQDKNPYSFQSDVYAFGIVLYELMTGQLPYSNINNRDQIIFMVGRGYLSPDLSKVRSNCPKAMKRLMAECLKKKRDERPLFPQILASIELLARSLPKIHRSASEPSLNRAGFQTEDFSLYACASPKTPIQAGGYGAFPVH

Take `O=C(Nc1ccc(Oc2ccnc3[nH]c(=O)c(=O)[nH]c23)cc1F)Nc1cc(C(F)(F)F)ccc1F` [AA-072, 1-(4-(2,3-Dioxo-1,2,3,4-tetrahydropyrido[3,2-b]pyrazin-8-yloxy)-2-fluorophenyl)-3-(2-fluoro-5-(trifluoromethyl)phenyl)urea]: the figures for the IC50 in the experiment with pERK and on B-RAF were under 1000 nM and under 100 nM, respectively. In the experiment with WM266.4 melanoma cells, the 50% growth inhibitory concentration (GI50) was 1000 to 10000 nM.

In the case of `CSc1cc(Oc2ccnc3[nH]c(=O)c(C)nc23)ccc1NC(=O)Nc1cc(C(C)(C)C)nn1-c1ccc(C)cc1` [AA-061, 1-(3-tert-butyl-1-p-tolyl-1H-pyrazol-5-yl)-3-(4-(2-methyl-3-oxo-3,4-dihydropyrido[2,3-b]pyrazin-8-yloxy)-2-(methylthio)phenyl)urea], the half-maximal inhibitory concentration (IC50) in the experiment with pERK is under 1000 nM; at B-RAF, under 100 nM. In the experiment with WM266.4 melanoma cells, this compound displayed a 50% growth inhibitory concentration (GI50) of under 1000 nM.

On to `O=C(Nc1cncc(C(F)(F)F)c1)Nc1ccc(Oc2ccnc3[nH]c(=O)cnc23)cc1F` [AA-069, 1-(2-fluoro-4-(3-oxo-3,4-dihydropyrido[2,3-b]pyrazin-8-yloxy)phenyl)-3-(5-(trifluoromethyl)pyridin-3-yl)urea], for which the IC50 with pERK was 1000 to 10000 nM; against B-RAF it was under 100 nM. The compound also returned a GI50 with WM266.4 melanoma cells of 1000 to 10000 nM.

In the case of `Cc1ccc(-n2nc(C(C)(C)C)cc2NC(=O)Nc2ccc(Oc3ccnc4nc(CBr)c(=O)[nH]c34)cc2F)cc1` [AA-058, 1-(4-(3-(bromomethyl)-2-oxo-1,2-dihydropyrido[2,3-b]pyrazin-8-yloxy)-2-fluorophenyl)-3-(3-tert-butyl-1-p-tolyl-1H-pyrazol-5-yl)urea], the half-maximal inhibitory concentration (IC50) in the experiment on pERK was in the range of 1000 to 10000 nM; against B-RAF it was 100 to 1000 nM. Besides, in the experiment with WM266.4 melanoma cells, the 50% growth inhibitory concentration (GI50) lay within 1000 to 10000 nM.

Turning to `O=C(Nc1cc(C(F)(F)F)ccc1F)Nc1ccc(Oc2ccnc3[nH]c(=O)cnc23)c2ccccc12` [AA-012, 1-(2-fluoro-5-(trifluoromethyl)phenyl)-3-(4-(3-oxo-3,4-dihydropyrido[2,3-b]pyrazin-8-yloxy)naphthalen-1-yl)urea], the GI50 with WM266.4 melanoma cells lay within 1000 to 10000 nM. Besides, the IC50 on B-RAF was < 1000 nM and 100 to 1000 nM.

`Cc1ccc(-n2nc(C(C)(C)C)cc2NC(=O)Nc2ccc(Oc3ccnc4nc(N5CCOCC5)cnc34)cc2F)cc1` [AA-073, 1-(3-tert-butyl-1-p-tolyl-1H-pyrazol-5-yl)-3-(2-fluoro-4-(3-morpholinopyrido[3,2-b]pyrazin-8-yloxy)phenyl)urea] displayed an IC50 with pERK of under 1000 nM. In the experiment with WM266.4 melanoma cells, this compound had a GI50 of under 1000 nM.

In the case of `O=C(Nc1cccc(Oc2ccnc3[nH]c(=O)cnc23)c1)Nc1cc(C(F)(F)F)ccc1F` [AA-007, 1-(2-fluoro-5-(trifluoromethyl)phenyl)-3-(3-(3-oxo-3,4-dihydropyrido[2,3-b]pyrazin-8-yloxy)phenyl)urea], the concentration for 50% growth inhibition (GI50) with WM266.4 melanoma cells was in the range of 1000 to 10000 nM. The compound further showed an IC50 against B-RAF of under 100 nM.

Regarding `CN(C)c1cnc2c(Oc3ccc(NC(=O)Nc4cc(C(F)(F)F)ccc4F)c(F)c3)ccnc2n1` [AA-068, 1-(4-(3-(dimethylamino)pyrido[3,2-b]pyrazin-8-yloxy)-2-fluorophenyl)-3-(2-fluoro-5-(trifluoromethyl)phenyl)urea], the GI50 in the experiment with WM266.4 melanoma cells lay within 1000 to 10000 nM. For the same compound, the IC50 at B-RAF was in the range of 100 to 1000 nM.

Take `CNc1cnc2c(Oc3ccc(NC(=O)Nc4cc(C(F)(F)F)ccc4F)c(F)c3)ccnc2n1` [AA-055, 1-(2-fluoro-4-(3-(methylamino)pyrido[3,2-b]pyrazin-8-yloxy)phenyl)-3-(2-fluoro-5-(trifluoromethyl)phenyl)urea]: the GI50 in the experiment with WM266.4 melanoma cells lay in the range of 1000 to 10000 nM. Further, the IC50 against B-RAF is < 1000 nM and 100 to 1000 nM.

The compound `O=C(Nc1ccc(Cl)c(C(F)(F)F)c1)Nc1ccc(Oc2ccnc3ncc(=O)[nH]c23)c2ccccc12` [AA-037, 1-(4-chloro-3-(trifluoromethyl)phenyl)-3-(4-(1-oxo-1,2-dihydropyrido[2,3-b]pyrazin-8-yloxy)naphthalen-1-yl)urea] returned a concentration for 50% growth inhibition (GI50) with WM266.4 melanoma cells of under 10000 nM. In addition, the 50% inhibitory concentration (IC50) at B-RAF is < 1000 nM and 100 to 1000 nM.

In turn, `CN(C)c1cnc2c(Oc3ccc(NC(=O)Nc4cc(C(C)(C)C)nn4-c4ccccc4)c(F)c3)ccnc2n1` [AA-070, 1-(3-Tert-butyl-1-phenyl-1H-pyrazol-5-yl)-3-(4-(3-(dimethylamino)pyrido[3,2-b]pyrazin-8-yloxy)-2-fluorophenyl)urea] returned an IC50 in the experiment with pERK of 1000 to 10000 nM. This compound came in with a GI50 in the experiment on WM266.4 melanoma cells of 1000 to 10000 nM.

Compound `CC(C)(C)c1cc(NC(=O)Nc2ccc(Oc3ccnc4[nH]c(=O)cnc34)cc2F)n(CC2CCC2)n1` [AA-099, 1-(3-Tert-butyl-1-(cyclobutylmethyl)-1H-pyrazol-5-yl)-3-(2-fluoro-4-(3-oxo-3,4-dihydropyrido[3,2-b]pyrazin-8-yloxy)phenyl)urea] had an IC50 in the experiment on pERK of under 1000 nM. In addition, the concentration for 50% growth inhibition (GI50) in the experiment with WM266.4 melanoma cells was 1000 to 10000 nM.

The values above are taken from US8198279B2, “Pyrido[2,3-b]pyrazin-8-substituted compounds and their use” (Institute of Cancer Research: Royal Cancer Hospital (The), priority 2007, dated 2012).
